The IC50 is the concentration needed to halve the response being measured. Broadly, the IC90 is the concentration at which the effect reaches the 90% level.

Active and inactive are the calls of the source. Unless noted, no cut-off for these calls is given here. Some results are limits rather than exact numbers.

The subject of data set [1] is Toxoplasma gondii. As to the kind of experiment: Antiparasitic activity against Toxoplasma gondii infected in human foreskin fibroblasts assessed as inhibition of replication measured as decrease in the number of tachyzoites in vacuole at 10 uM after 24 hrs by fluorescence assay. Type of data set: functional, organism-based.
Data set [2] can be described thus: Therapeutic index, ratio of TD50 for human foreskin fibroblasts to IC50 for Toxoplasma gondii infected in human foreskin fibroblasts. The settings on record: read-out: TI.
The subject of data set [3] is Toxoplasma gondii. As to the kind of experiment: Antiparasitic activity against Toxoplasma gondii infected in human foreskin fibroblasts assessed as inhibition of tachyzoite replication compound pretreated at 10 uM for 24 hrs before infection by fluorescence assay. Type of data set: functional, organism-based.
The test system of data set [4] is Toxoplasma gondii. The data set can be described thus: Antiparasitic activity against Toxoplasma gondii infected in human foreskin fibroblasts assessed as tachyzoite growth inhibition after 5 days by colorimetric assay. The settings on record: 120 h. Type of data set: functional, organism-based.
Data set [5] can be described thus: Cytotoxicity against human foreskin fibroblasts after 5 days by colorimetric assay. The settings on record: human foreskin fibroblasts (HFF cells), read-out: TD50. Type of data set: cell-based.
Data set [6] deals with Toxoplasma gondii. The data set can be described thus: Antiparasitic activity against Toxoplasma gondii infected in human foreskin fibroblasts assessed as inhibition of attachment compound pretreated at 10 uM for 20 mins before infection after 1 hr by fluorescence assay. Type of data set: functional, organism-based.
In data set [7] the test system is Toxoplasma gondii. As to the kind of experiment: Antiparasitic activity against Toxoplasma gondii infected in human foreskin fibroblasts assessed as inhibition of invasion compound pretreated at 10 uM for 20 mins before infection after 1 hr by fluorescence assay. Format: functional, organism-based.
Data set [8] concerns Toxoplasma gondii. As to the kind of experiment: Antiparasitic activity against Toxoplasma gondii infected in human foreskin fibroblasts assessed as inhibition of replication measured as recovery at 10 uM for 24 hrs followed by washout measured after 96 hrs by fluorescence assay. Format: functional, organism-based.

On to `CC(C)=N/N=C1\NC(=O)CS1`, for which the inhibition entry in data set [1] was “Active”. Besides, the selectivity ratio in data set [2] turned out to be 3. Further, the inhibition entry in data set [3] was “inactive”. In data set [4], the IC50 is 210 µM and the IC90 came out at 852 µM. For the same molecule, in data set [5], the CC50 at 120 h is no less than 320 µM.
On to `CC1CCC/C1=N/N=C1\NC(=O)CS1` (centres undefined), for which the inhibition result in data set [1], in data set [6] and in data set [7] was “Active” in each case. For the same molecule, in data set [2], the selectivity ratio came to 39. Further, the IC50 in data set [4] is 0.9 µM. Further, in data set [4], the IC90 came out at 2 µM. Besides, the CC50 at 120 h in data set [5] came out at 35 µM.
As to `CC1CC/C(=N/N=C2\NC(=O)CS2)C1` (centres undefined), the inhibition entry in data set [1], in data set [6] and in data set [7] was “Active” throughout. For the same molecule, the selectivity ratio in data set [2] was 23. Besides, the IC50 in data set [4] was found to be 24 µM. In addition, the IC90 in data set [4] was 154 µM. In addition, the CC50 at 120 h in data set [5] is no less than 320 µM.
For the molecule `C/C(=N/N=C1/SCC(=O)N1Cc1ccccc1)c1ccncc1`, the inhibition entry in data set [1], in data set [6] and in data set [7] was “Active” throughout. Also, in data set [2], the selectivity ratio came out at 5. In data set [4], the IC50 worked out at 36 µM. Moreover, in data set [4], the IC90 stood at 103 µM. Further, the CC50 at 120 h in data set [5] is 183 µM.
As to `O=C1CS/C(=N/N=C\c2cccc3ccccc23)N1`, the inhibition result in data set [8] was “inactive”. Also, the inhibition entry in data set [1], in data set [6] and in data set [7] was “Active” in each case. Also, the selectivity ratio in data set [2] was 144. Besides, the IC50 in data set [4] amounted to 3.9 µM. Also, the IC90 in data set [4] came out at 31 µM. The CC50 at 120 h in data set [5] was no less than 320 µM.
Consider `O=C1CS/C(=N/N=C\c2ccncc2)N1`, for which the inhibition entry in data set [1], in data set [6] and in data set [7] was “Active” each time. The selectivity ratio in data set [2] amounted to 28. In addition, in data set [4], the IC50 worked out at 20 µM. In addition, the IC90 in data set [4] worked out at 129 µM. Further, in data set [5], the CC50 at 120 h was no less than 320 µM.
For the molecule `C/C(CC(C)C)=N/N=C1\NC(=O)CS1`, the inhibition entry in data set [1], in data set [6] and in data set [7] was “Active” each time. Moreover, in data set [2], the selectivity ratio worked out at 13. Also, the IC50 in data set [4] was determined as 23 µM. In data set [4], the IC90 came to 126 µM. Further, the CC50 at 120 h in data set [5] was determined as 290 µM.

For the origin of these results see ChEMBL document CHEMBL3352341, “Design, synthesis and biological characterization of thiazolidin-4-one derivatives as promising inhibitors of Toxoplasma gondii” (Eur J Med Chem, 2014).
